{"source": "patent US20090252013A1", "about": "“HYDRAZIDE CHELATE COMPLEX COMPOUND, OPTICAL RECORDING MEDIUM USING THE COMPOUND AND RECORDING METHOD THEREOF” (Mitsubishi Chemical Corporation, priority 2006, published 2009)", "key": {"[1]": {"assay": "Solubility test in coating solvent (2,2,3,3-tetrafluoropropanol)", "assay_type": "physicochemical", "details": "20° C., result in words", "description": "The dissolution is determined by whether or not residual crystals of the compound remain in the solvent when the compound and TFP are mixed with a predetermined concentration.\nThen, the solution was dropped to filter paper (“No. 5C” quantitative filter paper manufactured by Toyo Roshi Kaisha), and dried at room temperature for 24 hours. It was visually observed whether or not crystal residues of undissolved components were present on the filter paper."}, "[2]": {"assay": "Light fastness test (xenon lamp) of dye recording layer", "assay_type": "physicochemical", "details": "xenon lamp 0.55 W/m^2, 40 hours, 58° C., humidity 50%, absorbance at absorption maximum", "description": "First, a solution containing a hydrazide chelate complex compound is applied over a substrate such that the film thickness after drying is about 50 nm, followed by drying, thus obtaining a layer containing the hydrazide chelate complex compound. The layer containing the resulting dye is irradiated with a xenon lamp (intensity 0.55 W/m^2) for a predetermined period of time under conditions at a temperature of 58° C. and a humidity of 50%. The absorbances at the absorption maximum wavelength before and after the irradiation are compared to obtain the dye residual ratio.\nThe resulting compound (A-6) was dissolved in 2,2,3,3-tetrafluoropropanol at a concentration of 1.0% by weight, and minute foreign particles were removed by filtration. Then, the resulting solution was dropped to an injection-molded polycarbonate substrate with a diameter of 120 mm and a thickness of 1.2 mm and coating was performed by spin coating (4,900 rpm), followed by drying at 80° C. for 30 minutes. […]\nUnder the conditions of temperature 58° C. and humidity 50%, a recording layer was irradiated with a xenon lamp at an irradiation intensity of 0.55 W/m^2 for 40 hours. Then, the dye residual ratio in the recording layer was determined on the basis of the absorbances before and after irradiation at the absorption maximum wavelength."}}, "data": [{"smiles": "CN1C(=CC=[N+]2N=C(c3ccccc3)[O][Cu-2]23[O]C(c2ccccc2)=N[N+]3=CC=C2N(C)c3ccccc3C2(C)C)C(C)(C)c2ccccc21", "note": "(centres unmarked) [Compound A-2]", "values": [{"measurement": "solubility in a coating solvent at a concentration of 0.7% by weight", "setting": "[1]", "result": "completely dissolved"}, {"measurement": "solubility in a coating solvent at a concentration of 1.0% by weight", "setting": "[1]", "result": "the amount of insolubles was slight"}]}, {"smiles": "CCOC(=O)CC1=N[N+](=CC=C2N(C)c3ccccc3C2(C)C)[Co-2]2([O]1)[O]C(CC(=O)OCC)=N[N+]2=CC=C1N(C)c2ccccc2C1(C)C", "note": "(centres unmarked) [Compound A-6]", "values": [{"measurement": "dye residual ratio (after 40-hour light fastness test)", "setting": "[2]", "result": 90, "unit": "%"}, {"measurement": "solubility in a coating solvent at a concentration of 0.7% by weight", "setting": "[1]", "result": "completely dissolved"}, {"measurement": "solubility in a coating solvent at a concentration of 1.0% by weight", "setting": "[1]", "result": "completely dissolved"}]}, {"smiles": "CCOC(=O)CC1=N[N+](=CC=C2N(CC)c3ccccc3C2(C)Cc2ccccc2)[Co-2]2([O]1)[O]C(CC(=O)OCC)=N[N+]2=CC=C1N(CC)c2ccccc2C1(C)Cc1ccccc1", "note": "(centres unmarked) [Compound A-11]", "values": [{"measurement": "dye residual ratio (after 40-hour light fastness test)", "setting": "[2]", "result": 91, "unit": "%"}, {"measurement": "solubility in a coating solvent at a concentration of 0.7% by weight", "setting": "[1]", "result": "completely dissolved"}, {"measurement": "solubility in a coating solvent at a concentration of 1.0% by weight", "setting": "[1]", "result": "completely dissolved"}]}, {"smiles": "CCN1C(=CC=[N+]2N=C(c3ccccc3)[O][Co-2]23[O]C(c2ccccc2)=N[N+]3=CC=C2N(CC)c3ccc(OC)cc3C2(C)C)C(C)(C)c2cc(OC)ccc21", "note": "(centres unmarked) [Compound A-86]", "values": [{"measurement": "solubility in a coating solvent at a concentration of 0.7% by weight", "setting": "[1]", "result": "completely dissolved"}, {"measurement": "solubility in a coating solvent at a concentration of 1.0% by weight", "setting": "[1]", "result": "completely dissolved"}]}, {"smiles": "CCN1C(=CC=[N+]2N=C(c3cccc(OC)c3)[O][Co-2]23[O]C(c2cccc(OC)c2)=N[N+]3=CC=C2N(CC)c3ccc(OC)cc3C2(C)C)C(C)(C)c2cc(OC)ccc21", "note": "(centres unmarked) [Compound A-87]", "values": [{"measurement": "solubility in a coating solvent at a concentration of 0.7% by weight", "setting": "[1]", "result": "completely dissolved"}, {"measurement": "solubility in a coating solvent at a concentration of 1.0% by weight", "setting": "[1]", "result": "completely dissolved"}]}, {"smiles": "CCOc1ccccc1C1=N[N+](=CC=C2N(CC)c3c(ccc4ccccc34)C2(C)C)[Co-2]2([O]1)[O]C(c1ccccc1OCC)=N[N+]2=CC=C1N(CC)c2c(ccc3ccccc23)C1(C)C", "note": "(centres unmarked) [Compound A-88]", "values": [{"measurement": "solubility in a coating solvent at a concentration of 0.7% by weight", "setting": "[1]", "result": "completely dissolved"}, {"measurement": "solubility in a coating solvent at a concentration of 1.0% by weight", "setting": "[1]", "result": "completely dissolved"}]}, {"smiles": "CCN1C(=CC=[N+]2N=C(c3ccccc3OC)[O][Co-2]23[O]C(c2ccccc2OC)=N[N+]3=CC=C2N(CC)c3ccc(OC)cc3C2(C)Cc2ccccc2)C(C)(Cc2ccccc2)c2cc(OC)ccc21", "note": "(centres unmarked) [Compound A-150]", "values": [{"measurement": "solubility in a coating solvent at a concentration of 0.7% by weight", "setting": "[1]", "result": "completely dissolved"}, {"measurement": "solubility in a coating solvent at a concentration of 1.0% by weight", "setting": "[1]", "result": "completely dissolved"}]}, {"smiles": "CCN1C(=CC=[N+]2N=C(c3ccc(C(=O)OC)cc3)[O][Co-2]23[O]C(c2ccc(C(=O)OC)cc2)=N[N+]3=CC=C2N(CC)c3ccc(OC)cc3C2(C)Cc2cccc(F)c2)C(C)(Cc2cccc(F)c2)c2cc(OC)ccc21", "note": "(centres unmarked) [Compound A-152]", "values": [{"measurement": "solubility in a coating solvent at a concentration of 0.7% by weight", "setting": "[1]", "result": "completely dissolved"}, {"measurement": "solubility in a coating solvent at a concentration of 1.0% by weight", "setting": "[1]", "result": "completely dissolved"}]}, {"smiles": "CCN(CC)C(=O)c1ccc(C2=N[N+](=CC=C3N(CC)c4ccc(OC)cc4C3(C)Cc3ccccc3)[Co-2]3([O]2)[O]C(c2ccc(C(=O)N(CC)CC)cc2)=N[N+]3=CC=C2N(CC)c3ccc(OC)cc3C2(C)Cc2ccccc2)cc1", "note": "(centres unmarked) [Compound A-159]", "values": [{"measurement": "solubility in a coating solvent at a concentration of 0.7% by weight", "setting": "[1]", "result": "completely dissolved"}, {"measurement": "solubility in a coating solvent at a concentration of 1.0% by weight", "setting": "[1]", "result": "completely dissolved"}]}, {"smiles": "CCN1C(=CC=[N+]2N=C(c3ccc(C(=O)OC)cc3)[O][Co-2]23[O]C(c2ccc(C(=O)OC)cc2)=N[N+]3=CC=C2N(CC)c3ccc(OC)cc3C2(C)Cc2ccccc2)C(C)(Cc2ccccc2)c2cc(OC)ccc21", "note": "(centres unmarked) [Compound A-186]", "values": [{"measurement": "solubility in a coating solvent at a concentration of 0.7% by weight", "setting": "[1]", "result": "completely dissolved"}, {"measurement": "solubility in a coating solvent at a concentration of 1.0% by weight", "setting": "[1]", "result": "completely dissolved"}]}, {"smiles": "CCCN(CCC)S(=O)(=O)c1ccc(C2=N[N+](=CC=C3N(CC)c4ccc(OC)cc4C3(C)Cc3ccccc3)[Co-2]3([O]2)[O]C(c2ccc(S(=O)(=O)N(CCC)CCC)cc2)=N[N+]3=CC=C2N(CC)c3ccc(OC)cc3C2(C)Cc2ccccc2)cc1", "note": "(centres unmarked) [Compound A-211]", "values": [{"measurement": "solubility in a coating solvent at a concentration of 0.7% by weight", "setting": "[1]", "result": "completely dissolved"}, {"measurement": "solubility in a coating solvent at a concentration of 1.0% by weight", "setting": "[1]", "result": "completely dissolved"}]}, {"smiles": "CCN1C(=CC=[N+]2N=C(c3cccc(OCCOC)c3)[O][Co-2]23[O]C(c2cccc(OCCOC)c2)=N[N+]3=CC=C2N(CC)c3ccc(OC)cc3C2(C)Cc2ccccc2)C(C)(Cc2ccccc2)c2cc(OC)ccc21", "note": "(centres unmarked) [Compound A-212]", "values": [{"measurement": "solubility in a coating solvent at a concentration of 0.7% by weight", "setting": "[1]", "result": "completely dissolved"}, {"measurement": "solubility in a coating solvent at a concentration of 1.0% by weight", "setting": "[1]", "result": "completely dissolved"}]}, {"smiles": "CN(C)c1ccc(C2=N/[N+](=C/c3ccccn3)[Co-2]3([O]2)[O]C(c2ccc(N(C)C)cc2)=N/[N+]3=C/c2ccccn2)cc1", "note": "[Compound B-4, reference compound]", "values": [{"measurement": "solubility in a coating solvent at a concentration of 0.7% by weight", "setting": "[1]", "result": "the amount of insolubles was large"}, {"measurement": "solubility in a coating solvent at a concentration of 1.0% by weight", "setting": "[1]", "result": "the amount of insolubles was large"}]}, {"smiles": "[CH2-][N+]1=C\\c2n(C)c3ccccc3[n+]2[Co-3]23([O]C(c4ccc(N(C)C)cc4)=N[N+]2=Cc2n(C)c4ccccc4[n+]23)[O]/C(c2ccc(N(C)C)cc2)=N\\1", "note": "[Compound B-5, reference compound]", "values": [{"measurement": "solubility in a coating solvent at a concentration of 0.7% by weight", "setting": "[1]", "result": "the amount of insolubles was large"}, {"measurement": "solubility in a coating solvent at a concentration of 1.0% by weight", "setting": "[1]", "result": "the amount of insolubles was large"}]}, {"smiles": "[CH2-][N+](=C\\C=C\\c1ccc(N(CC)CC)cc1)/N=C(\\[O][Co-]1[O]C(c2c(C)cc(C)cc2C)=N/[N+]1=C/C=C/c1ccc(N(CC)CC)cc1)c1c(C)cc(C)cc1C", "note": "[Compound B-6, reference compound]", "values": [{"measurement": "solubility in a coating solvent at a concentration of 0.7% by weight", "setting": "[1]", "result": "the amount of insolubles was large"}, {"measurement": "solubility in a coating solvent at a concentration of 1.0% by weight", "setting": "[1]", "result": "the amount of insolubles was large"}]}]}
